# Patent publication US8679842B2, “Method for increasing the pool of Ngn3+ endocrine progenitor cells and pancreatic endocrine cell mass” (Assistance Publique—Hopitaux de Paris, priority 2009, dated 2014)
# “Also recorded” adds a separate entry of the source.
# Tests used:
# [1] = system: early progenitors expressing PDX1; assay: BrdU incorporation: proliferation of early PDX1 progenitors in cultured embryonic pancreases; assay type: cell-based, rat; conditions: 100 μM; 24 h culture, BrdU during last hour (FIG. 3D); control 31.24%±2.8%
# Method: Dorsal pancreatic rudiments were cultured on 0.45 μm filters (Millipore) at the air-medium interface in a 35 mm sterile Petri dishes containing 2 ml RPMI-1640 medium (Invitrogen) supplemented with 100 U/ml penicillin, 100 μg/ml streptomycin, 10 mmol/L HEPES, 2 mmol/L L-glutamine, 1× non-essential aminoacids (Invitrogen) and 10% heat-inactivated fetal calf serum (HyClone, Logan, Utah, USA). Glibenclamide (MP Biomedical) and nifedipine (Sigma), used at the indicated concentrations, were first dissolved as concentrated solutions in dimethylsulfoxide DMSO (Sigma), the final concentration of DMSO in the culture medium was less than 0.5% (vol/vol). The culture medium was changed every day. […]
# Quantification—To quantify the surface area of insulin, glucagon, PCSK1/3, CPA and amylase-expressing cells, all sections of each pancreatic rudiment were digitized. […] The surface of insulin, glucagon, PCSK1/3, CPA, amylase, and Hoechst stainings were quantified using Iplab (Scanalytics). […] To measure proliferation of the early progenitors expressing PDX1, we counted the frequency of BrdU positive progenitors expressing PDX1 among 3000 early progenitors expressing PDX1 per rudiment. To quantify the absolute number of NGN3-expressing cells, pancreatic rudiments were sectioned and all sections were stained with an anti-NGN3 antibody. Positive cells were counted on all sections of each pancreatic rudiment. […]
# [2] = system: E13.5 Rat embryonic pancreases; assay: E13.5 rat embryonic pancreas organ culture: growth, morphology and toxicity (Hoechst staining); assay type: cell-based
# From the text: (§1) Pregnant Wistar rats were purchased from the Janvier Breeding centre (CERJ, LeGenet, France). The first day postcoitum was taken as embryonic day (E) 0.5. Pregnant rats were killed with CO2 asphyxiation according to guidelines issued by the French Animal Care Committee. Dorsal pancreatic buds from E13.5 rat embryos were dissected as described previously (Miralles et al., 1998). Briefly, the stomach, pancreas and a small portion of the intestine were dissected together, and then the pancreas primordium was isolated.
# (§2) Dorsal pancreatic rudiments were cultured on 0.45 μm filters (Millipore) at the air-medium interface in a 35 mm sterile Petri dishes containing 2 ml RPMI-1640 medium (Invitrogen) supplemented with 100 U/ml penicillin, 100 μg/ml streptomycin, 10 mmol/L HEPES, 2 mmol/L L-glutamine, 1× non-essential aminoacids (Invitrogen) and 10% heat-inactivated fetal calf serum (HyClone, Logan, Utah, USA). Glibenclamide (MP Biomedical) and nifedipine (Sigma), used at the indicated concentrations, were first dissolved as concentrated solutions in dimethylsulfoxide DMSO (Sigma), the final concentration of DMSO in the culture medium was less than 0.5% (vol/vol). The culture medium was changed every day. Glibenclamide and nifedipine were added to the media daily. The cultures were incubated at 37° C. in a humidified atmosphere composed of 95% air and 5% CO2. At the end of the culture period, the pancreases were photographed, and fixed as described below or harvested for RNA extraction
# (§3) Quantification—To quantify the surface area of insulin, glucagon, PCSK1/3, CPA and amylase-expressing cells, all sections of each pancreatic rudiment were digitized. Alternate sections were examined to avoid counting the same cell twice. The surface of insulin, glucagon, PCSK1/3, CPA, amylase, and Hoechst stainings were quantified using Iplab (Scanalytics). The stained areas were summed to obtain the total surface area per rudiment in mm^2. To measure proliferation of the early progenitors expressing PDX1, we counted the frequency of BrdU positive progenitors expressing PDX1 among 3000 early progenitors expressing PDX1 per rudiment. To quantify the absolute number of NGN3-expressing cells, pancreatic rudiments were sectioned and all sections were stained with an anti-NGN3 antibody. Positive cells were counted on all sections of each pancreatic rudiment. A minimum of three rudiments was analyzed per condition.
# Using the in vitro model as described above (E13.5 Rat embryonic pancreases cultured at the air/medium interface on a floating filter), we examined the effects of increased concentrations of the sulphonylurea glibenclamide (an inhibitor of KATP channels) on pancreas development. […] Under both conditions, the epithelium grew rapidly, spread into the mesenchyme, and developed lobules. There is no difference in apoptosis in pancreases cultured 7 days without or with 10 and 100 μM glibenclamide as shown by the Hoechst staining of the nuclei (FIG. 1B).
# [3] = system: E13.5 Rat embryonic pancreases; assay: Immunohistochemistry and quantification of stained surface area / cell number in cultured embryonic pancreases; assay type: cell-based
# From the text: as §1, §2
# Immunochemistry—The pancreatic rudiments were fixed in 10% formalin, pre-embedded in agarose gel (4% of type VII low-gelling-temperature agarose (Sigma) in H2O) and embedded in paraffin. Immunohistochemistry was performed on 4-μm paraffin sections as previously described (Duvillie et al., 2006). The primary antibodies were mouse anti insulin (1/2000; Sigma), rabbit anti-glucagon (1/1000; Diasorin), rabbit anti-amylase (1/300; Sigma), rabbit anti-carboxypeptidase A (1/600; Biogenesis, Kidlington, Oxford, UK), rabbit anti-PDX1 (1/1000) (Duvillie et al., 2003) mouse anti-BrdUrd5 (1/2; Amersham Biosciences, Buckingham, UK), rabbit anti-PCK1/3, rabbit anti-Ngn3 (1/100, Guillemain et al., 2007), rabbit anti-KIR6.2 and anti-SUR1 (1/100, Santa Cruz). The fluorescent secondary antibodies were fluorescein anti-rabbit antibody (1/200; Jackson Immunoresearch, Baltimore, Md., USA), fluorescein goat anti-rabbit Alexa Fluor 488 (1/400; Invitrogen) and Texas red anti-mouse antibody (1/200; Jackson). Nuclei were stained in blue with Hoechst 33342 (0.3 μg/ml; Invitrogen). Ngn3 detection was performed as previously described (Guillemain et al., 2007) using the Vectastain elite ABC kit (Vector laboratories).
# as §3
# [4] = system: E13.5 Rat embryonic pancreases; assay: Real-time PCR of gene expression in cultured embryonic pancreases; assay type: cell-based
# From the text: as §1, §2
# Total RNA was isolated from pools of at least three pancreases using the Qiagen RNeasy Microkit (Qiagen, Courtaboeuf, France) and reverse transcribed using Superscript reagents (Invitrogen). Real-time PCR was performed with the 7300 Fast real-time PCR system (Applied Bio system) using either Taqman universal PCR universal PCR master mix or SYBR green PCR master mix (Applied Biosystem) with primers and labelled probes specific for each gene. Peptidylpropyl isomerase A/Cyclophilin A was used as endogenous control and E16.5 pancreas cDNA as calibrator sample. The data were analyzed by comparative cycle threshold method (Livak et al., 1997) and presented as the fold change in gene expression. At least three pools of explants were analysed by condition.
compound,measurement,setting,value
COc1ccc(Cl)cc1C(=O)NCCc1ccc(S(=O)(=O)NC(=O)NC2CCCCC2)cc1 [glibenclamide],percentage of PDX-1+ cells that incorporate BrdU,[1],32.60%±4.2%
same,pancreatic growth vs control,"[2]; 10 nM, 100 nM, 1, 10 or 100 μM, 7 days of culture (FIG. 1A)",similar
same,branching of the epithelium,[2]; 100 μM (FIG. 1A),more branched
same,apoptosis (Hoechst staining of the nuclei) vs control,"[2]; 10 and 100 μM, 7 days (FIG. 1B)",no difference
same,toxicity by overall size of pancreases (Hoechst surface area),"[2]; 10 or 100 μM, 7 days (FIG. 1C)",lack of glibenclamide toxicity
same,pycnotic nuclei (Hoechst staining),"[2]; 7 days, indicated concentrations (FIG. 1B)",lack of pycnotic nuclei
same,number of NGN3+ cells vs control,"[3]; 100 μM, 5 days of culture (FIG. 3B, 3C)",threefold higher; also recorded: increased number of NGN3 positive nuclei
same,surface area occupied by PCSK1/3 staining in PDX-1+ cells vs control,"[3]; 100 μM, 7 days (FIG. 2D)",similar
same,increase of the number of glucagon-expressing cells,"[3]; 100 μM, 7 days (FIG. 2E)",3.5 fold
same,decrease of surface area occupied by the insulin-cell population,"[3]; 7 days of culture, vs control, data not shown",70%
same,insulin-positive cells (insulin-staining area),"[3]; Glib 5D pancreases, data not shown",significant increase
same,insulin-containing cells,"[3]; Glib pancreases: glibenclamide during the 14-day culture period, data not shown",less
same,insulin-expressing cells,"[3]; Glib-5D: 100 μM only during first 5 days, D9, D11 or D14 (FIG. 4A)",large number
same,Pou3F4/Brn4 mRNA level,"[4]; 100 μM, D7 (FIG. 2F)",significant increase
same,Ngn3 expression (mRNA) increase vs control,"[4]; 100 μM, after 5 days of culture, p<0.001 (FIG. 3A)",sevenfold
same,Ngn3 mRNA level vs control,"[4]; 100 μM, after the D5 peak (D7), p<0.001 (FIG. 3A)",dramatically higher
same,insulin expression (mRNA),"[4]; 100 μM, as early as D3 (FIG. 2A)",strongly reduced
same,Ngn3 expression (mRNA) vs control,"[4]; 100 μM, day 1 and 3 (FIG. 3A)",similar
same,ZnT-8 expression (mRNA),"[4]; 100 μM, over the 7 days of culture (FIG. 2B)",did not affect
same,MafA expression (mRNA),"[4]; 100 μM, over the 7 days of culture (FIG. 2C)",did not affect
same,NeuroD1 mRNA level vs control,"[4]; D5, data not shown",significantly increased
same,NeuroD1 mRNA level vs control,"[4]; D7, data not shown",reminded enhanced
same,ZnT-8 expression vs control,"[4]; Glib 5D, after 9, 11 and 14 days, p<0.01 (FIG. 4C)",dramatic increase
same,MafA expression vs control,"[4]; Glib 5D, after 9, 11 and 14 days, p<0.01 (FIG. 4D)",dramatic increase
same,insulin mRNA level vs control,"[4]; Glib-5D, D7 (FIG. 4B)",identical
same,insulin mRNA level increase vs control,"[4]; Glib-5D, D9 (FIG. 4B)",threefold
same,insulin mRNA level increase vs control,"[4]; Glib-5D, D11 (FIG. 4B)",twofold
same,insulin mRNA level increase vs control,"[4]; Glib-5D, D14 (FIG. 4B)",threefold
same,ZnT-8 expression vs control,"[4]; Glib-5D, after 7 days of culture (FIG. 4C)",similar
same,MafA expression vs control,"[4]; Glib-5D, after 7 days of culture (FIG. 4D)",similar
same,NeuroD1 mRNA levels vs control,"[4]; after 1 and 3 days of culture, data not shown",similar
same,increase in somatostatin expression,"[4]; after 7 days of culture, data not shown",two-fold
